Reference: US20250186600A1, “EXCIPIENT COMPOUNDS FOR PROTEIN FORMULATIONS” (Comera Life Sciences, Inc., priority 2020, published 2025)
Values joined by “and” are separate entries in the source; they are usually repeats but may differ in a detail not shown here. Equal values may be shown once. Where a name gives a salt, the structure may show the parent alone.

Experiments:
[1] = tested on: bovine gamma globulin (BGG); assay: Normalized viscosity of BGG with caffeine and a secondary excipient (Example 40); format: physicochemical; settings: BGG about 280 mg/mL, 20 mM histidine pH 6, 25° C.
[2] = Table 13; versus 79.7 cP with no excipient
[3] = tested on: infliximab; assay: Thermal stability at 50° C. with caffeine and excipients, SE-HPLC (Example 63); format: physicochemical; settings: excipient 0.5 M, caffeine 50 mM, infliximab 10 mg/mL, 5 mM phosphate pH 7.5, 50° C., 180 min
Protocol: Therapeutic proteins stress leads to aggregation of the protein and a decrease in the active native species. […] The aliquots were withdrawn at 0 min, 90 min and 180 min. […] Diode array detector.

[4] = tested on: nivolumab; assay: Thermal stability of nivolumab at 40 C for 4 weeks, SE-HPLC (Example 69); settings: Excipient added at 400 mM; nivolumab 10 mg/ml, 5 mM phosphate pH 7.5, 40 C for 4 weeks
[5] = tested on: pembrolizumab; assay: Thermal stability of pembrolizumab at 40 C for 4 weeks, SE-HPLC (Example 70); settings: Excipient added at 400 mM; pembrolizumab 10 mg/ml, 5 mM phosphate pH 7.5, 40 C for 4 weeks
[6] = Caffeine solubility testing with co-solutes at ambient temperature (Examples 31-32); settings: with co-solute
Protocol: Prepared solutions were used either neat or diluted with deionized water.
A small magnetic stir bar was added to the vial, and the solution was allowed to mix vigorously on a stir plate for about 10 minutes.

[7] = molecular target: T1, PEGylated BSA with 1 PEG chain per BSA molecule (Bos taurus, UniProt P02769); assay: Viscosity of PEGylated BSA with 1 PEG chain per BSA molecule (Example 16); format: physicochemical; settings: Table 8; versus 228.6 cP with no excipient
T1 construct: purchased Aldrich A7906
Protocol: To a beaker was added 200 mL of a phosphate buffered saline (Aldrich Cat. #P4417) and 4 g of BSA (Aldrich Cat. #A7906) and mixed with a magnetic bar. Next 400 mg of methoxy polyethylene glycol maleimide, MW=5,000, (Aldrich Cat. #63187) was added. The reaction mixture was allowed to react overnight at room temperature. The following day, 20 drops of HCl 0.1 M were added to stop the reaction. […] The reaction mixture was placed in an Amicon centrifuge tube with a molecular weight cutoff (MWCO) of 30 kDa and concentrated to a few milliliters. Next the sample was diluted 20 times with a histidine buffer, 50 mM at a pH of approximately 6, followed by concentrating until a high viscosity fluid was obtained.
The viscometer measurements were completed at ambient temperature.

[8] = tested on: BGG; settings: Table 15; versus 130.6 cP with no excipient
Protocol: Each buffer solution contained different excipient or combination of excipients as described in the table below (Table 15). The viscosity of the solutions was measured as described in previous examples.

[9] = molecular target: PEGylated lysozyme with multiple PEG chains per lysozyme molecule (Gallus gallus, UniProt P00698); settings: Table 10
Protocol: The solution was mixed by gently shaking and the viscosity was measured by a RheoSense microVisc equipped with an A10 channel (100 micron depth) at a shear rate of 500 s-1. The viscometer measurements were completed at ambient temperature.

[10] = tested on: omalizumab; assay: Mechanical shear stress (agitation 72 h), absorbance at 350 nm (Example 47); format: physicochemical; settings: excipient 0.5 mg/mL, omalizumab 2 mg/mL, 22° C., 72 h agitation at 300 rpm
Protocol: Excipients that offer protection against shear stresses were identified by agitating therapeutic protein solutions in the presence of the test excipients (listed in Table 48 below) and observing any change in the number of aggregated particles. […] The samples were transferred to a 0.5 mL cryogenic vial (ThermoFisher, Waltham MA) and secured to an orbital shaker. They were then incubated at 22° C. for 72 h with agitation set at 300 rpm. At the end of incubation period, 100 μL of each sample was transferred to 96-well plates, and the absorbance was measured at 350 nm. Any increase in aggregation was measured by observing the changes in light scattering at 350 nm, and comparing those changes to the light scattering at 350 nm of a control formulation (prepared identically to the test samples but without the addition of the excipient). Excipients that are protective in nature were identified by their ability to slow the rate of aggregation and decrease the A350 absorbance value after the agitation step.

[11] = tested on: ustekinumab-FITC; assay: Mechanical shear stability of ustekinumab-FITC, particle radius by DLS (Example 60); settings: ustekinumab-FITC 1 mg/mL, 20 mM histidine pH 6, 300 rpm 72 h 23° C.
[12] = tested on: ustekinumab; assay: Thermal stability at 65 deg C., increase in percent monomer by SE-HPLC (Example 55); format: physicochemical; settings: excipient 5 mg/mL, ustekinumab 1 mg/mL, 20 mM Histidine pH 6.0, 65 deg C., 120 min
Source text: Therapeutic proteins are frequently subjected to fluctuations in temperatures, which may lead to changes in their tertiary and secondary structural elements. This leads to aggregation of the protein and a decrease in the active native species.

[13] = tested on: omalizumab; assay: Freeze/thaw stress (6 cycles), monomer by SE-HPLC (Example 57); format: physicochemical; settings: excipient 100 mM, omalizumab 2 mg/mL, 20 mM Histidine pH 6.0, freeze (−80° C.)/thaw
Protocol: Therapeutic proteins are frequently kept at low temperatures to improve their kinetic stability and minimize structural perturbations that could lead to the aggregation of the protein and a decrease in the active native species. In certain cases, this might be done by freezing the formulation until use. However, the low temperatures, concentration gradients, and ice formation during repeated freezing and thawing can stress the protein. […] The formulations were then aliquoted into 0.5 mL cryovials and frozen at −80° C. for 120 min. The samples were then thawed using a water bath kept at room temperature.

[14] = tested on: ustekinumab; assay: Accelerated aging at 40° C. for 4 weeks, monomer by SE-HPLC (Example 58); format: physicochemical; settings: excipient 100 mM, ustekinumab 2 mg/mL, 20 mM Histidine pH 6.0, 40° C. for 4 weeks
Protocol: 1 mL of each sample was aliquoted into 2 mL glass vials (West Pharmaceutical services, PA) and incubated at 40° C. for 4 weeks. The aliquots were withdrawn after 0, 1, 2, 3, and 4 weeks.

[15] = tested on: ustekinumab-FITC; assay: Thermal stability of model ADC at 65° C. by SE-HPLC (Example 56); settings: excipient 5 mg/mL, ustekinumab-FITC 1 mg/mL, 20 mM Histidine pH 6.0, 65° C.
[16] = tested on: bovine gamma globulin (BGG); assay: Viscosity of 280 mg/mL BGG formulations with excipient compounds, cone and plate viscometer (Examples 1, 2, 4-6); format: physicochemical
[17] = tested on: ustekinumab; assay: Urea denaturation, Sypro orange fluorescence (Example 44); format: physicochemical; settings: excipient 5 mg/mL, ustekinumab 1 mg/mL, 6M urea, 20 mM histidine pH 6.0, Sypro orange fluorescence
Source text: It is known that urea denatures proteins in solution and causes them to unfold. The screening methodology in this example involved adding a specific concentration of urea to a therapeutic protein solution such as ustekinumab. […] One method to track protein unfolding involves the use of extrinsic fluorescent dyes such as Sypro orange. Sypro orange binds to hydrophobic regions in the unfolded protein structure, leading to an increase in the fluorescence signal observed. Measuring the differences in the fluorescence intensity of unfolded protein-Sypro orange complex in presence of different excipients thus allows one to identify any stabilizing effects.
All excipients used in this Example, listed in Table 45 below, were of the highest purity, and were obtained from Sigma Aldrich (St. Louis, MO) or Cayman Chemical (Ann Arbor, MI). […] This urea stock solution was then added to a final concentration of 6M to produce the test solutions (excipient plus protein plus urea). […] The pH of the mixture was rechecked and confirmed to be at pH 6.0. The test solutions were allowed to incubate at room temperature for 30 min.

[18] = tested on: ustekinumab; assay: Thermal stability at 65° C., monomer by SE-HPLC (Example 46); format: physicochemical; settings: excipient 5 mg/mL, ustekinumab 1 mg/mL, 20 mM histidine pH 6.0, incubated at 65° C.
Source text: Therapeutic proteins are frequently subjected to fluctuations in temperatures which may lead to changes in tertiary and secondary structural elements. This can lead to aggregation of the protein and decrease the amount of active native protein. […] All excipients used in this Example, listed in Table 47 below, were of the highest purity, and were obtained from Sigma Aldrich (St. Louis, MO) or Cayman Chemical (Ann Arbor, MI).

[19] = tested on: ustekinumab; assay: Stabilization at low pH, Sypro orange fluorescence (Example 45); settings: excipient 5 mg/mL, ustekinumab 1 mg/mL, glycine acidification buffer pH 2.6, Sypro orange fluorescence

T1 sequence (P02769 25-607): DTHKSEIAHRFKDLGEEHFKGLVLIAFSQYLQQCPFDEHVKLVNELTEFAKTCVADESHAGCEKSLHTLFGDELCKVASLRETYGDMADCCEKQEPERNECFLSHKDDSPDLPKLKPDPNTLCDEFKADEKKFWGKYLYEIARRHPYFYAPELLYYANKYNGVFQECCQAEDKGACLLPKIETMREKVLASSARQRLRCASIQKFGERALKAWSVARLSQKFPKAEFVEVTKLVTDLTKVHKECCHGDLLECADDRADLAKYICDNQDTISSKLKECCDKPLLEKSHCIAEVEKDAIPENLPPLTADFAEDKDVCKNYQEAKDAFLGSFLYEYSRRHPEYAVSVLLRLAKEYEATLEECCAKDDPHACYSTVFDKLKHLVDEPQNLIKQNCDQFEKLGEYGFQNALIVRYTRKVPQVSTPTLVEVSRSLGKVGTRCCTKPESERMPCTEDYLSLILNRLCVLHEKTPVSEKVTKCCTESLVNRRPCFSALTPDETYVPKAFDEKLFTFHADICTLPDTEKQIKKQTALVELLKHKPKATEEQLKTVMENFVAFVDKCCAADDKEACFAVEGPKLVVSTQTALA
PEGylated lysozyme with multiple PEG chains per lysozyme molecule, sequence (P00698 19-147): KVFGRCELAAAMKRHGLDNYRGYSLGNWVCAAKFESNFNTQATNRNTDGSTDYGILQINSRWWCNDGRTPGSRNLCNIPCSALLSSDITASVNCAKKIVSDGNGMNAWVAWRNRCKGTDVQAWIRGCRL

In the case of `O=S(=O)([O-])[O-].[Na+].[Na+]` [Sodium sulfate], the “Normalized Viscosity” value ([1]; Excipient A caffeine 15 mg/mL + Excipient B 14 mg/mL) was 0.78 and the “Viscosity Reduction (%)” value [2] was 5.8%.

With `CO[C@H]1[C@H](O)[C@@H](O)[C@@H](O)[C@H](O)[C@@H]1O` [Pinitol] the “% change compared to control” value [3] was 13.1%, the “% Monomer remaining” value [4] was 85.6% and the “% Monomer remaining” value [5] was 79.2%.

For `CCN(CC)CCOC(=O)c1ccc(N)cc1` [Procaine HCl, reference compound], the “dissolution of caffeine relative to the reported caffeine solubility limit” value [6] was “at least about four times”.

For Alpha-Cyclodextrin sulfated Na salt, the “Viscosity Reduction” value [7] was 34%.

With `O=C1NS(=O)(=O)c2ccccc21.[Na]` [Saccharin, Na, saccharin sodium salt] the “dissolution of caffeine relative to the reported caffeine solubility limit” value [6] was “at least about four times”.

With `N=C(N)NCCC[C@H](N)C(=O)O` [Arginine, reference compound] the “Normalized Viscosity” value ([1]; Excipient A caffeine 15 mg/mL + Excipient B 20 mg/mL) was 0.63 and the “Viscosity Reduction (%)” value [8] was 41%.

In the case of `O=C(O)[C@H](O)[C@@H](O)[C@H](O[C@@H]1O[C@H](CO)[C@H](O)[C@H](O)[C@H]1O)[C@H](O)CO` [Lactobionic acid], the “% change compared to control” value [3] was 20.8%, the “% Monomer remaining” value [4] was 89.8% and the “% Monomer remaining” value [5] was 82.1%.

For `CC(=O)[O-].[K+]` [K acetate, potassium acetate], the “Viscosity Reduction” value [7] was 60%, the “Viscosity (cP)” value ([9]; PEGylated lysozyme, 500 s-1, ambient temperature, excipient 20 mg/mL) was 22.6 cP and the “Viscosity Reduction” value ([9]; versus 24.6 cP with no excipient) was 8%.

In the case of `O=C(O)CC(O)(CC(=O)O)C(=O)O`, the “Viscosity Reduction (%)” value [2] was 6.0%.

In the case of Madecassoside, the “% decrease of A350 signal vs. control” value [10] was 73.2% and the “DLS particle radius (nm) after shear test” value (from here on “DLS particle radius (nm)”) ([11]; excipient 5 mg/mL) was 6.4 nm.

In the case of `O=P([O-])([O-])[O-].[K+].[K+].[K+]` [Potassium phosphate, potassium phosphate tribasic], the “Viscosity Reduction (%)” value [2] was 9.3%.

For `O=C(CO)[C@@H](O[C@H]1O[C@H](CO)[C@@H](O)[C@H](O)[C@H]1O)[C@H](O)[C@H](O)CO` [Turanose], the “% increase in monomer content vs. control” value [12] was 5.8%, the “% increase in monomer content vs. control” value [13] was 75.99% and the “% increase in monomer content vs. control” value [14] was 8.3%. The “% increase in monomer content vs. control” value [15] was 48.06%.

For `OC[C@H]1O[C@@](CO)(OC[C@@]2(O[C@H]3O[C@H](CO)[C@@H](O)[C@H](O)[C@H]3O)O[C@H](CO)[C@@H](O)[C@@H]2O)[C@@H](O)[C@@H]1O` [Kestose], the “% increase in monomer content vs. control” value [12] was 5.9%, the “% increase in monomer content vs. control” value [13] was 71.18% and the “% increase in monomer content vs. control” value [14] was 8.4%. For the same compound, the “% Monomer remaining” value [4] was 92.4% and the “% Monomer remaining” value [5] was 82.6%.

In the case of `O=C([O-])c1ccccc1O.[Na+]` [Sodium salicylate], the “Viscosity Reduction” value [16] was 28% and 34% and the “Viscosity (cP)” value ([16]; pH 6) was 57 cP and 52 cP.

With `Cl.NCCc1ccc(O)cc1` [Tyramine HCl] the “dissolution of caffeine relative to the reported caffeine solubility limit” value [6] was “at least about four times”.

With Rebaudioside A the “% decrease of A350 signal vs. control” value [10] was 73.2% and the “DLS particle radius (nm)” value ([11]; excipient 5 mg/mL) was 5.8 nm.

With `C=C1C[C@@]23CC[C@H]4[C@@](C)(CCC[C@@]4(C)C(=O)O[C@@H]4O[C@H](CO)[C@@H](O)[C@H](O)[C@H]4O)[C@@H]2CC[C@]1(O[C@@H]1O[C@H](CO)[C@@H](O)[C@H](O)[C@H]1O)C3` [Rubusoside] the “DLS particle radius (nm)” value ([11]; excipient 8.3 mg/mL) was 6.2 nm.

For `O=C(CO)[C@@H](O)[C@H](O)[C@H](O)[C@H](O)CO` [Sedoheptulose], the “% increased stability” value [17] was 3.7%, the “Monomer Fraction % change from control” value [18] was 3.4% and the “% increase in monomer content vs. control” value [12] was 4.1%. For the same compound, the “% increase in monomer content vs. control” value [13] was 11.35%, the “% increase in monomer content vs. control” value [14] was 7.7% and the “% change in stability” value [19] was 2.6%. The “% increase in monomer content vs. control” value [15] was 37.68%.

For `CC(=O)N[C@@H]1C(O)O[C@H](CO)[C@@H](O)[C@@H]1O` (stereo partly drawn) [N-Acetyl Mannosamine], the “% increase in monomer content vs. control” value [12] was 3.1%, the “% increase in monomer content vs. control” value [14] was 4.4% and the “% increase in monomer content vs. control” value [15] was 23.49%.
